We go through 6 molecules from PMC12441834, “Highly Potent and Subtype-Selective Sperm-Specific Potassium Channel SLO3 Inhibitors Display High Tissue Exposure in the Murine Female Reproductive Tract” (ACS Pharmacology & Translational Science, 2025).

One data set has as its target T1, hSLO1 (Homo sapiens, UniProt Q12791).
T1 construct: expressed in transfected cells; host or cells: HEK293
The data set can be described thus: SLO1 inhibition in HEK cells. The class given is cell-based. The protocol: HEK293 cells were transfected with the bicistronic vector pBUD-CE4.1 containing the genes of interest and a gene conferring antibiotic resistance. Cells were exposed to gradients of selection antibiotics, and optimal growth conditions for the stable lines were as follows: SLO3 and γ2 (SLO3-γ2) supplemented with 700 μg/mL Zeocin (Invitrogen); human SLO1 and β1 (SLO1-β1) with 1 mg/mL G418 (Sigma) and 3 μg/mL puromycin (Corning, Thermo Fisher); and human SLO1 and β4 (SLO1-β4) with 250 μg/mL Zeocin and 3 μg/mL puromycin. All cell lines were grown in Dulbecco’s Modified Eagle Medium (Gibco, Thermo Fisher) supplemented with 10% fetal bovine serum, 1% penicillin–streptomycin (Millipore Sigma), and selection antibiotics. To generate cells expressing SLO1 and γ2, stable SLO1-expressing HEK293 cells were transiently transfected with expression vectors for γ2 and green fluorescent protein (GFP) in the presence of lipofectamine (Invitrogen) for 5 h.
The cells were then washed and incubated in supplemented Dulbecco’s Modified Eagle Medium for 48 h before use. Patch-clamp electrophysiology was performed only on cells expressing GFP.
Currents in HEK293 cells were measured in the whole-cell patch-clamp configuration with an Axopatch 200B amplifier, digitized with a Digidata 1440A, and interfaced with Clampex 10.6.0.13 (Molecular Devices). […] An isolated cell was located on an Axiovert 200 microscope (Zeiss), and a gigaohm seal was formed with a borosilicate pipette with resistance between 3 and 6 MΩ and filled with internal solution (140 mM KMeSO3, 10 mM HEPES, 10 mM MES, 1 mM EGTA, pH 7). The seal was then broken by applying a negative pressure. Cells were kept at a holding potential of −60 mV for 50 ms, tested with a stepped voltage protocol from −80 to +150 mV in 10 mV increments for 100 ms, and then dropped to −40 mV for 50 ms with 2.5 s between sweeps. This protocol was used to record currents present with increasing concentration of our compound of interest or 3 μL/mL vehicle (DMSO) in the bath solution. Individual cells were tested with between 1 and 5 concentrations of the compound of interest or until the patch was lost. Currents were allowed to stabilize before the initial recording and after the perfusion solution was changed before recording.

The nature of data set [1]: Plasma protein binding, equilibrium dialysis. The class given is in vitro ADME. How it is done: Determination of compounds’ fraction unbound (f u ) in plasma from mouse, rat, and human was conducted in vitro via equilibrium dialysis using HTDialysis membrane plates. Dialysis membranes were hydrated as described by the manufacturer and inserted into the HTD plate, which was assembled and prepared for sample addition by the dispensing of blank buffer (Dulbecco’s Phosphate-Buffered Saline, 100 μL/well) into the trans chamber of each membrane-split well. Each compound was diluted into plasma from each species (5 μM final concentration), which was aliquoted in triplicate in the cis chamber of the prepared HTD plate wells. The HTD plate was sealed and incubated for 6 h at 37 °C. Following incubation, each well (both cis and trans chambers) was transferred (20 μL) to the corresponding wells of a 96-shallow-well (V-bottom) plate. The daughter plates were then matrix-matched (buffer-side wells received an equal volume of plasma, and plasma-side wells received an equal volume of buffer), and an extraction solution (120 μL; acetonitrile containing 50 nM carbamazepine as an internal standard (IS)) was added to all wells of both daughter plates to precipitate protein and extract the test article. The plates were then sealed and centrifuged (3500 rcf) for 10 min at ambient temperature. Supernatant (60 μL) from each well of the daughter plates was then transferred to the corresponding wells of new daughter plates (96-shallow-well, V-bottom) containing water (Milli-Q, 60 μL/well), and the plates were sealed in preparation for liquid chromatography–tandem mass spectrometry (LC-MS/MS) analysis (see below).
For orientation: In equilibrium dialysis only unbound substance equilibrates across the membrane.

Data set [2] in a line: Intrinsic clearance in liver microsomes. The class given is in vitro ADME, rat. The following applies: for Rat CLhep, % Hepatic blood flow: rat liver microsomes; for CLhep predicted at 1 μM: rat, liver microsomes, pH 7.4, rat liver microsomes, read-out: Rat CLhep (in vitro hepatic clearance from microsomal CLint). How it is done: (§1) The in vitro intrinsic clearance (CLint) was investigated in commercially obtained hepatic microsomes from mouse, rat, and human donors using the substrate depletion (i.e., loss-of-parent vs time, or half-life (t 1/2) method) approach with analyte detection via liquid chromatography–tandem mass spectrometry (LC-MS/MS). For each species, mean %parent remaining values at each time point were calculated from replicate raw data (analyte:IS peak area ratios) and used to determine in vitro t 1/2 and CLint.
(§2) Experiments were carried out by using a robot-assisted liquid handler (Bravo with BenchCell, Agilent). The compound was incubated (1 μM final concentration) in buffer (100 mM potassium phosphate pH 7.4 with 3 mM MgCl2) containing hepatic microsomes (0.5 mg/mL final concentration) from each species, discretely, at 37 °C under constant orbital shaking. After 5 min (preincubation), reactions were initiated by the addition of nicotinamide adenine dinucleotide phosphate (NADPH, 1 mM final concentration). At selected time intervals (0, 3, 7, 15, 25, and 45 min) postaddition of NADPH, aliquots (50 μL) were taken and placed into a 96-shallow-well plate containing ice-cold acetonitrile (150 μL) with carbamazepine (IS, 50 nM). The plates were then centrifuged (3000 rcf at 4 °C) for 10 min. The supernatants were transferred to a new 96-shallow-well daughter plate and diluted (1:1 v/v) with water (Milli-Q filtered). The plates were then sealed for preparation for LC-MS/MS analysis (see below).
(§3) Analyte:IS peak area ratios generated by LC-MS/MS were used to construct natural log-transformed %parent remaining vs time plots (using t = 0 min post-NADPH addition sample data as the starting point set to 100%). In vitro compound t 1/2 values were calculated by using the following equation: t1/2=ln(2)/k where k is the slope from the linear regression analysis of the natural log-transformed data (using means from all replicates at each time point). Resulting t 1/2 values were then used to calculate hepatic CLint values according to the following equation and with the use of species-specific scale-up factors for liver weight (grams) per total body weight (kg): CLint=0.693/invitrot1/2×1mLincubation/0.5mgmicrosomes×45mgmicrosomes/1gramliver×garamliver/kgbodywt
(§4) ^aScale-up factors used are 45 (rat) and 20 (human).
(§5) Predicted hepatic clearance (CLhep) was calculated by using the following equation: CLhep=Qh×CLint/Qh+CLint
(§6) Q h represents hepatic blood flow (mL/min/kg): 21 for humans, 70 for rats, and 90 for mouse.

Data set [3] in a line: Intrinsic clearance in liver microsomes. The class given is in vitro ADME, mouse. The note with it: for Mouse CLhep, % Hepatic blood flow: mouse liver microsomes; for CLhep predicted at 1 μM: mouse, liver microsomes, pH 7.4, mouse liver microsomes, read-out: Mouse CLhep (in vitro hepatic clearance from microsomal CLint). The protocol: as §1, §2, §3, §4, §5, §6
Where [4] appears, read: human, fraction unbound, equilibrium dialysis, 5 μM, read-out: Plasma Protein Binding (fu) Human.
The mark [5] stands for this setting: mouse, equilibrium dialysis, 5 μM, read-out: Plasma Protein Binding (fu) Mouse.
Setting [6] is: rat, equilibrium dialysis, 5 μM, read-out: Plasma Protein Binding (fu) Rat.

Each structure is given as a SMILES string. Like-named read-outs stand apart in the source and are kept apart here. A value given as a limit tells only on which side of the number the result lay.

A word on the IC50: it is the concentration needed to halve the response being measured. A low value points to greater potency in that assay.

T1 sequence (Q12791 whole entry): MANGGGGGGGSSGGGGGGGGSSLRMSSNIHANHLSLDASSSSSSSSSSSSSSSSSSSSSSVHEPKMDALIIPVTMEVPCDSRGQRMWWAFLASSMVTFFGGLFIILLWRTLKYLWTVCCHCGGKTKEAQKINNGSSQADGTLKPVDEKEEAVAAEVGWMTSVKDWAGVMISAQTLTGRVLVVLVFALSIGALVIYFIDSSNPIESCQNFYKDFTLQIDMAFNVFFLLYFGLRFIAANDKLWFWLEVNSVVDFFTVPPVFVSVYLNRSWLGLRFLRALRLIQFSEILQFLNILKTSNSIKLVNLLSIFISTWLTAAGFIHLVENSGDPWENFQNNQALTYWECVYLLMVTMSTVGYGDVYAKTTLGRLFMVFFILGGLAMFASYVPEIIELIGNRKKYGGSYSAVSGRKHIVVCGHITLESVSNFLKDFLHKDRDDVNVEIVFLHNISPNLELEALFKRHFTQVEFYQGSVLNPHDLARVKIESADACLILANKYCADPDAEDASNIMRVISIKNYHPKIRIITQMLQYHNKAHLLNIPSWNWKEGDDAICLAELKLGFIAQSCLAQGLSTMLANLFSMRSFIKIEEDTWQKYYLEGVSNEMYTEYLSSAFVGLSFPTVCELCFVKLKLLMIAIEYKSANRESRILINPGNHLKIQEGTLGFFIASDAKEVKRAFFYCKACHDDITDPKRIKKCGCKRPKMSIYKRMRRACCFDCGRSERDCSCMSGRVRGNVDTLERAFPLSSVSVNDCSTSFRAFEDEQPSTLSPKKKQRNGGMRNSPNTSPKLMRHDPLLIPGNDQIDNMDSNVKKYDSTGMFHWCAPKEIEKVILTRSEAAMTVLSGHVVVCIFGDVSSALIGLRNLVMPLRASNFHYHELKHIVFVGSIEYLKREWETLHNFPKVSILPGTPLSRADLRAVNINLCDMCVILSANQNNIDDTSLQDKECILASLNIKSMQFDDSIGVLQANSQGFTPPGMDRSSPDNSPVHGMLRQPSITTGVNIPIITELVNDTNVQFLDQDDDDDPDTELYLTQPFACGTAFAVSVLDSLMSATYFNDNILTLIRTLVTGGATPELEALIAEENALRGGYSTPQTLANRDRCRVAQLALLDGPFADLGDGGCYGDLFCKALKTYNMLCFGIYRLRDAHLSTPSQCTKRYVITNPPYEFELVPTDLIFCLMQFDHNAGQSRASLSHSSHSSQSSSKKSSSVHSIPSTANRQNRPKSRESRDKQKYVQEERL

As to `O=C(c1ccc(OCc2ccc(OC(F)(F)F)cc2)cc1)N1CCN(c2ccc(C(F)(F)F)cn2)CC1` [VU6032735], the “HEK hSLO1 % inhib. at 30 μM” value at hSLO1 (30 μM) was “No inhibition”. The results for the fraction unbound at 6 h, 5 μM in data set [1] (setting [4]), in data set [1] (setting [5]) and in data set [1] (setting [6]) were 0.0005, 0.012 and 0.024, respectively. In addition, in data set [2], the “Rat CLhep, % Hepatic blood flow” value was found to be 23%. Besides, the results for the CLhep predicted at 1 μM in data set [2] and in data set [3] were 16.2 mL/min/kg and 50.1 mL/min/kg, respectively. In addition, the “Mouse CLhep, % Hepatic blood flow” value in data set [3] came to 56%.

Turning to `Cc1cc(Cl)cc2sc(OC3CCN(C(=O)CCCS(=O)(=O)c4cccc(Br)c4)CC3F)nc12` (stereo not drawn) [VU6045330], the IC50 on hSLO1 came to 109 µM. The “SLO1 selectivity (fold selective for SLO3)” value on hSLO1 (SLO1 IC50 / hSLO3 IC50) is listed as 802 fold.

With `Cc1cc(Cl)cc2sc(O[C@H]3CCN(C(=O)CCCS(=O)(=O)c4cccc(Br)c4)C[C@H]3F)nc12` [VU6047606], the inhibition at 30 µM at hSLO1 (HEK293, read-out: HEK hSLO1 % inhib. at 30 μM) came out at 10%. The fraction unbound at 6 h, 5 μM in data set [1] (human, fraction unbound as percent, read-out: fu in human plasma) was below 0.01; in data set [1] (setting [4]) it was 0.001; in data set [1] (setting [5]), 0.0002; in data set [1] (mouse, read-out: fu in mouse plasma), below 0.01; in data set [1] (setting [6]) it was 0.001; in data set [1] (rat, read-out: fu in rat plasma) it was below 0.01. The “Rat CLhep, % Hepatic blood flow” value in data set [2] amounted to 71%. Moreover, the CLhep predicted at 1 μM was above 46 mL/min/kg in data set [2] and above 60 mL/min/kg in data set [3]. Further, the “Mouse CLhep, % Hepatic blood flow” value in data set [3] is listed as 93%.

For `Cc1cc(Cl)cc2sc(O[C@@H]3CCN(C(=O)CCCS(=O)(=O)c4cccc(Br)c4)C[C@H]3F)nc12` [VU6047607], the fraction unbound at 6 h, 5 μM was determined as 0.002 in data set [1] (setting [4]), 0.004 in data set [1] (setting [5]) and 0.004 in data set [1] (setting [6]). Besides, the “Rat CLhep, % Hepatic blood flow” value in data set [2] was found to be 76%. Further, the figures for the CLhep predicted at 1 μM in data set [2] and in data set [3] were 53.5 mL/min/kg and 88.1 mL/min/kg, respectively. The “Mouse CLhep, % Hepatic blood flow” value in data set [3] amounted to 98%.

`Cc1cc(Cl)cc2sc(O[C@@H]3CCN(C(=O)CCCS(=O)(=O)c4cccc(Br)c4)C[C@@H]3F)nc12` [VU6047608]: the fraction unbound at 6 h, 5 μM worked out at 0.001 in data set [1] (setting [4]), 0.004 in data set [1] (setting [5]) and 0.002 in data set [1] (setting [6]). In data set [2], the “Rat CLhep, % Hepatic blood flow” value is 72%. Moreover, the figures for the CLhep predicted at 1 μM in data set [2] and in data set [3] were 50.5 mL/min/kg and 85.9 mL/min/kg, respectively. Besides, in data set [3], the “Mouse CLhep, % Hepatic blood flow” value was found to be 95%.

In the case of `Cc1cc(Cl)cc2sc(O[C@H]3CCN(C(=O)CCCS(=O)(=O)c4cccc(Br)c4)C[C@@H]3F)nc12` [VU6047609], the fraction unbound at 6 h, 5 μM in data set [1] (setting [4]) worked out at 0.002; in data set [1] (setting [5]), 0.008; in data set [1] (setting [6]), 0.004. The “Rat CLhep, % Hepatic blood flow” value in data set [2] turned out to be 89%. Also, the CLhep predicted at 1 μM in data set [2] was 62.4 mL/min/kg; in data set [3] it was 87.6 mL/min/kg. In addition, the “Mouse CLhep, % Hepatic blood flow” value in data set [3] was found to be 97%.
